Results as given in PMC11848821, “Acrolein-Mediated Conversion of Lysine to Electrophilic Heterocycles for Protein Diversification and Toxicity Profiling” (Journal of the American Chemical Society, 2025).

Legend:
Type in all cases: binding
lysozyme human = target: T1, lysozyme human (Homo sapiens, UniProt P61626); assay: intact protein MS and MS/MS; details: covalent; lysine adduct (FDP)
T1 construct: gene LYZ; commercial protein, mature
T1 sequence (P61626 19-148): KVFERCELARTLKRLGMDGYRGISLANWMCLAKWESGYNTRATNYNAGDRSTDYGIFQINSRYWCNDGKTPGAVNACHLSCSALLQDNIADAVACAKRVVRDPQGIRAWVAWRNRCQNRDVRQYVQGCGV

[1] = target: T2, bovine serum albumin (BSA) (Bos taurus, UniProt P02769); assay: in-gel fluorescence after thiol-FITC addition to the adduct; details: covalent; lysine adduct (FDP); 12 h
T2 construct: gene ALB; commercial native protein, mature
T2 sequence (P02769 25-607): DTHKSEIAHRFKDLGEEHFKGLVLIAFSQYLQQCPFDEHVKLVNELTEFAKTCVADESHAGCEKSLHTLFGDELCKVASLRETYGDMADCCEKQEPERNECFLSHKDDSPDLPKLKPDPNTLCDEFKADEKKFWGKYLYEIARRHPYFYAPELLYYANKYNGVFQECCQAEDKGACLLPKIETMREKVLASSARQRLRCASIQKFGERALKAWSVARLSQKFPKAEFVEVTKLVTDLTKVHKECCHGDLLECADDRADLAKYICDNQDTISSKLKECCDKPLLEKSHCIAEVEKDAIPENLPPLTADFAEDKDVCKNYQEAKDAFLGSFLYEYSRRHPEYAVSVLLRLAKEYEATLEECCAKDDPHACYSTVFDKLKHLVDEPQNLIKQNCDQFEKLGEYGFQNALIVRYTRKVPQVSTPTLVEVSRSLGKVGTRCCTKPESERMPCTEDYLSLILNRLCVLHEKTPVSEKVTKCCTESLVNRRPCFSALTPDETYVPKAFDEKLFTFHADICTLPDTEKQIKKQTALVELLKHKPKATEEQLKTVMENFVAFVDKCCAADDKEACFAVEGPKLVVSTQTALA

lysozyme chicken = target: T3, lysozyme chicken (Gallus gallus, UniProt P00698); assay: intact protein MS and MS/MS; details: covalent; lysine adduct (FDP)
T3 construct: gene LYZ
T3 sequence (P00698 19-147): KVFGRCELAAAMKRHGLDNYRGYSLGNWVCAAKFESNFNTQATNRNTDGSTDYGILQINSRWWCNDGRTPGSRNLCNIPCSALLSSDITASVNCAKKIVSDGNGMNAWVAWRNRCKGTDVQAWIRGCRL

What does the source list for `C=CC=O` [acrolein]?
intact protein MS and MS/MS (lysozyme human): ribonuclease A, lysozyme chicken, lysozyme human, β-lactoglobulin, and apo-Transferrin; in-gel fluorescence after thiol-FITC addition to the adduct [1]: formation of FDP-lysine and labeling of Apo-transferrin, BSA, and myoglobin with FITC fluorophore; intact protein MS and MS/MS (lysozyme chicken): ribonuclease A, lysozyme chicken, lysozyme human, β-lactoglobulin, and apo-Transferrin
